Laboratory results as given in patent US8895600B2, “Non peptidic 14-3-3 inhibitors and the use thereof” (Università degli Studi di Siena, priority 2010, dated 2014).

How the values were obtained:
[1] = tested on: Ba/F3 cells expressing the wild type Bcr-Abl; assay: Clonogenic assay (0.9% methylcellulose), Ba/F3 wt Bcr-Abl; type: cell-based, murine; details: Ba/F3 p210Bcr-Abl WT, dose reducing cell clonogenic potential to 50%
Description: (§1) Parental pro-B murine cell line Ba/F3 and clones expressing the wt and T315I and E255K-mutated Bcr-Abl constructs were kindly donated by Michael W Deininger (Department of Hematology and Clinical Oncology, Health and Science University, Cancer Institute, Portland, Oreg., USA). […] Indirect immuno-magnetic labeling (mini-MACS from Milteny Biotech, Bergish Gladback, Germany) was used to isolate CD34+ hematopoietic progenitors from bone marrow samples of 3 CML patients in blast crisis who developed IM resistance. Patient informed consent to use bone marrow samples for our experimental studies was approved by the Ethical Committee of S. Orsola-Malpighi Hospital (Bologna, Italy). The content of CD34+ cells in each sample was measured by cytofluorimetric analysis of CD34 expression with a FacScan (Becton Dickinson, Franklin Land, PI, USA).
(§2) Briefly, the authors assessed the reduction of colony (aggregates containing >50 cells generated in 0.9% methylcellulose supplemented with 30% FCS) number in Bcr-Abl-expressing Ba/F3 cell lines and CD34+ in presence of BV02 increasing doses after 7 or 14 day incubation, respectively, at 37° C. in fully humidified atmosphere and 5% CO2. Linear and non linear regression analyses were used to calculate BV02 LD50 in Bcr-Ablexpressing Ba/F3 cell lines and CD34+ progenitors from CML patients, respectively.
(§3) PI uptake was measured by mean of a FACScan flow cytometer set at >580 nm and a dedicated software (both from Beckton Dickinson, San Jose, Calif., USA). Caspase-8 activity was detected with a commercial kit (Carboxyfluorescein FLICA Apoptosis Detection kits from Immunochemistry Technologies LLC, Bloomington, Minn., USA) according to manufacturer instructions. […] Apoptosis was quantified as the level of fluorescence emitted from FLICA probes bound to caspases. […] Caspase-8 activity was quantified by mean of a dedicated software (DIVA from Becton Dickinson). Cell response to BV-01 and BV-02 was evaluated in clonogenic assays (0.9% methylcellulose additioned with drug scalar doses) (see Methods above for methodological details).

[2] = tested on: Ba/F3 Parental cells (lacking Bcr-Abl); assay: Clonogenic assay (0.9% methylcellulose), parental Ba/F3; type: cell-based, murine; details: dose reducing cell clonogenic potential to 50%
Description: (§4) Parental pro-B murine cell line Ba/F3 and clones expressing the wt and T315I and E255K-mutated Bcr-Abl constructs were kindly donated by Michael W Deininger (Department of Hematology and Clinical Oncology, Health and Science University, Cancer Institute, Portland, Oreg., USA). They were maintained in RPMI medium (Gibco, Paisley, 9 JPET#172536 UK) supplemented with 10% FCS (Gibco), 1% I-glutamine (Sigma, St. Louis, Miss., USA) and 10% WEHI 3 conditioned medium as source of IL-3 when required. […] The content of CD34+ cells in each sample was measured by cytofluorimetric analysis of CD34 expression with a FacScan (Becton Dickinson, Franklin Land, PI, USA). […] BV02 cytotoxicy was assayed in clonogenic assays, the best in vitro technique to quantify drug impact on cell reproductive integrity.
as §2, with “Linear and non linear regression analyses were used to calculate BV02 LD50 in Bcr-Ablexpressing Ba/F3 cell lines and CD34+ progenitors from CML patients, respectively.” left out
(§5) Cell cycle distribution was performed on 1×10^6 cells fixed overnight in 70% ethanol and treated with 1 μg/μL 11 JPET#172536 PI and RNAse (Sigma) at 37° C. for 30′. […] Apoptosis was quantified as the level of fluorescence emitted from FLICA probes bound to caspases. […]

14-3-3σ = target: T1, 14-3-3σ (Homo sapiens, UniProt P31947); assay: Transferred NOE (tr-NOEs) NMR binding experiment; details: 298K; protein concentration 10 fold less than ligand
T1 sequence (P31947 1-248): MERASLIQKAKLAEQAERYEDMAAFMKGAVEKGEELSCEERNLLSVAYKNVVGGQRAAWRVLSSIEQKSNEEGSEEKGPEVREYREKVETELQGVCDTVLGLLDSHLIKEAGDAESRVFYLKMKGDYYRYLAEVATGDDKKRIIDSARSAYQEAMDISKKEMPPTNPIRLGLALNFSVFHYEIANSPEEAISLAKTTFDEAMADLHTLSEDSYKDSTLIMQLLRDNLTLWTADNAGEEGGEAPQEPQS
Procedure: The binding ability of BV-01 was analyzed by transferred Nuclear Overhauser Enhancement experiments (tr-NOEs). Experiments were recorded (at 298K on Bruker Avance 600) both on the free ligand and in the presence of protein in concentration 10 fold less than ligand. In the tr-NOEs experiments, only ligands in fast exchange between the bound and the free form are observed. Since the NOE effects are directly related to the size of the molecule in solution, by binding to the protein, the ligands NOE change in intensity and appearance allowing an easy detection of the binding.

[3] = tested on: Ba/F3 cells expressing the T315I Bcr-Abl mutation; assay: Clonogenic assay (0.9% methylcellulose), Ba/F3 T315I Bcr-Abl; type: cell-based, murine; details: Ba/F3 p210Bcr-Abl T315I, dose reducing cell clonogenic potential to 50%
Description: as §1, §2, §3

[4] = tested on: Ba/F3 cells expressing the Bcr-Abl mutation coding for E255K; assay: Clonogenic assay (0.9% methylcellulose), Ba/F3 E255K Bcr-Abl; type: cell-based, murine; details: Ba/F3 p210Bcr-Abl E255K; dose reducing cell clonogenic potential to 50%
Description: as §4
as §2, with “Linear and non linear regression analyses were used to calculate BV02 LD50 in Bcr-Ablexpressing Ba/F3 cell lines and CD34+ progenitors from CML patients, respectively.” left out
as §5

[5] = tested on: c-Abl / 14-3-3σ signalling in Ba/F3 cells expressing T315I Bcr-Abl mutation; assay: Western blot and IP/immunoblotting of sub-cellular fractions, T315I Bcr-Abl Ba/F3; type: cell-based, murine
Procedure: as §2, with “respectively. […]” for “respectively.”
Proteins or IP products obtained through overnight incubation with primary antibodies in Buffer D (250 mM NaCl, 15 mM MgCl2 40 mM Hepes, 60 mM glycerophosphate supplemented with protease inhibitors) were resolved in SDSPAGE. […] Signals were visualized by the enhanced chemo-luminescence detection system ECL from Pierce (Rockford, Ill., USA). Signal intensities in single blots obtained from three individual experiments were quantified by mean of a dedicated software (Launch VisionWorks LS, Upland, Calif., USA).
(§6) The statistical significance of differences in signal intensities relative to cell treatments was assessed by mean of paired Student's t-test; p<0.05 was kept as limit for statistical significance.

[6] = tested on: Ba/F3 cells expressing the wild type Bcr-Abl protein; assay: Apoptosis induction, cytofluorimetric Annexin V and PI uptake, wt Bcr-Abl; type: cell-based, murine; details: IM 1 μM for 24 h, BV02 5 μM for 24 h
[7] = tested on: c-Abl / 14-3-3σ signalling in wt Bcr-Abl-expressing Ba/F3 cells; assay: Western blot and IP/immunoblotting of sub-cellular fractions, wt Bcr-Abl Ba/F3; type: cell-based, murine; details: 24 h, 1 μM IM or 5 μM BV02; for interaction between c-Abl and 14-3-3σ: IP/immunoblotting
Procedure: Nuclear lysates were obtained from naked nuclei recovered from 2×10^7 cells kept in buffer B (10 mM NaCl, 5 mM MgCl2, 10 mM phosphate buffer and 0.1% Tergitol-type detergent NP40 [all from Sigma] supplemente with protease inhibitors) by means of 3 sonication rounds (10′ pulses using a Hight Intensity Ultrasonic Processor/Sonicator from Cole Parmer [Vernon Hills, Ill., USA] equipped with 2 mm tips). Mitochondrial membranes were separated from whole cell lysates by 30′ centrifugation at 14,000 g in 2 mL buffer C (20 mM Hepes pH 7.5, 1.5 mM MgCl2, 10 mM KCl, 1 mM EDTA, 1 mM EGTA, 1 mM dithiothreitol, 0.1% PMS and protease inhibitors in 250 mM sucrose) at 4° C.
Proteins or IP products obtained through overnight incubation with primary antibodies in Buffer D (250 mM NaCl, 15 mM MgCl2 40 mM Hepes, 60 mM glycerophosphate supplemented with protease inhibitors) were resolved in SDSPAGE. Gels were then transferred onto nitrocellulose membranes (Schleicher & Schuel, Dassel, Germany), labelled with primary and secondary antibodies in TBS with 5% BSA (Sigma) and 0.1% Tween20 (Sigma). The antibodies were purchased from Upstate Biotechnology (Lake Placid, N.Y., USA), Cell Signalling (Danvers, Mass., USA) and Santa Cruz Biotechnology (Santa Cruz, Calif., USA). Signals were visualized by the enhanced chemo-luminescence detection system ECL from Pierce (Rockford, Ill., USA). Signal intensities in single blots obtained from three individual experiments were quantified by mean of a dedicated software (Launch VisionWorks LS, Upland, Calif., USA).
as §6

[8] = tested on: CD34+ cells from bone marrow of CML patients in blast crisis with T315I mutation; assay: Clonogenic assay on CD34+ progenitors of IM-resistant CML patients; type: cell-based, human; details: three CML patients in blast crisis
Description: as §4, with “required. Indirect immuno-magnetic labeling (mini-MACS from Milteny Biotech, Bergish Gladback, Germany) was used to isolate CD34+ hematopoietic progenitors from bone marrow samples of 3 CML patients in blast crisis who developed IM resistance.” for “required.”
as §2, with “Linear and non linear regression analyses were used to calculate BV02 LD50 in Bcr-Ablexpressing Ba/F3 cell lines and CD34+ progenitors from CML patients, respectively.” left out

[9] = tested on: Ba/F3 cells expressing T315I mutation; assay: Apoptosis induction, cytofluorimetric Annexin V and PI uptake, T315I; type: cell-based, murine; details: IM 1 μM for 24 h, BV02 5 μM for 24 h
Procedure: as §2, with “respectively. Apoptosis induction and involved signals were assayed in Bcr-Abl-expressing Ba/F3 cell lines after 24 h exposure to 1 μM IM and 5 μM BV02 by means of cytofluorimetric analysis of Annexin V (Hoffmann-La Roche, Basel, SW) and PI (Sigma) uptake, Western blot and IP/immunoblotting analyses, according to published methods (Mancini, 2009).” for “respectively.”

SMILES: CCCCCCOC(=O)c1ccc(Nc2c([N+](=O)[O-])cc(C(=O)O)cc2[N+](=O)[O-])cc1 [BV-01]
- LD50 [1]: 1.41 µM
- LD50 [2]: 1.89 µM
- tr-NOEs pattern (binding to 14-3-3σ) (14-3-3σ): weak interaction
- LD50 [3]: 1.70 µM
- LD50 [4]: 1.28 µM

SMILES: Cc1c(NC(=O)c2cc(C(=O)O)ccc2C(=O)O)c(=O)n(-c2ccccc2)n1C [BV-02]
- LD50 [1]: 1.04 µM
- LD50 ([1]; listed as BV02): 1.04 ± 0.09 µM
- c-Abl release from 14-3-3σ, relocation and apoptotic events ([5]; T315I Ba/F3): elecited all above mentioned events
- Tyr245 phosphorylation of normal and Bcr-rearranged c-Abl ([5]; T315I Ba/F3 after exposure to BV02): slight increase
- apoptosis induction (impact on survival) [6]: statistically significant impact
- LD50 [2]: 1.08 µM
- interaction between c-Abl and 14-3-3σ ([7]; cytoplasm): mediates c-Abl release from 14-3-3σ
- interaction between c-Abl and 14-3-3σ ([7]; cytoplasm, listed as BV02): reduction
- c-Abl (145 kDa) level ([7]; cytoplasm): reduction
- c-Abl interaction with caspase 9 ([7]; cytoplasm): increase
- c-Abl phosphorylation at Tyr245 ([7]; cytoplasm): not affected
- caspase 9 (p35) and caspase 8 (p18) activated fragments ([7]; cytoplasm): increase
- levels of 14-3-3σ ([7]; cytoplasm): left steady
- phosphorylation of p210 Bcr-Abl at Tyr245 ([7]; cytoplasm): did not significantly affect
- c-Abl (145 and 60 kDa), caspase 9 (p35), caspase 8 (p18) and t-Bid (p15) at mitochondrial membranes ([7]; mitochondrial membranes): significantly raised
- c-Abl (145 and 120 kDa) and p27kip1 in the nuclear compartment ([7]; nuclear compartment): significantly increased
- LD50 [3]: 1.47 µM
- LD50 ([3]; listed as BV02): 1.47 ± 0.12 µM
- cytotoxicity in CD34+ cells (survival curves) [8]: confirmed
- LD50 [4]: 1.21 µM
- apoptosis induction (impact on survival) [9]: statistically significant impact

SMILES: Cc1ccc(NC(=O)c2ccc(CN3CCN(C)CC3)cc2)cc1Nc1nccc(-c2cccnc2)n1 [Imatinib, reference compound]
- apoptosis induction (impact on survival) [9]: not on survival of Ba/F3 cells expressing T315I mutation
